Laboratory results as given in patent US4419123A, “Herbicidal 4-trifluoromethyl-3'-carbon-substituted-4'-substituted diphenyl ethers” (Rohm and Haas Company, priority 1981, dated 1983).

How the values were obtained:
[1] = Preemergence herbicidal activity (% control) against dicot weeds; settings: pre-emergence, 336 h; for activity at 4483.4 g/ha: read-out: Herbicidal activity (% control), preemergence, dicots, 4 lb./A., average, about two weeks after application; for activity at 11208.5 g/ha: read-out: Herbicidal activity (% control), preemergence, dicots, 10 lb./A., average, about two weeks after application; for activity at 2241.7 g/ha: read-out: Herbicidal activity (% control), preemergence, dicots, 2 lb./A., average, about two weeks after application
[2] = Postemergence herbicidal activity (% control) against monocot weeds; type: in vivo; settings: post-emergence, 336 h, average, about two weeks after application, read-out: Herbicidal activity (% control), postemergence, monocots; for activity at 4483.4 g/ha: 4 lb./A.; for activity at 11208.5 g/ha: 10 lb./A.; for activity at 2241.7 g/ha: 2 lb./A.
From the text: (§1) barnyardgrass (Echinochloa crusgalli) crabgrass (Digitaria spp.) nutsedge (Cyperus esculentus)
(§2) At 2 and 4 pounds per acre:
(§3) **Bermudagrass (Cynodon dactylon)
(§4) *downy brome (Bromus tectorum) foxtail (Setaria faberii)
(§5) Johnsongrass (Sorghum halepense) […]
(§6) quackgrass (Agropyron repens)
(§7) *ryegrass (Lolium perenne)
(§8) *wild oats (Avena factua)
(§9) *yellow millet (Panicum miliaceum)
(§10) The following test procedure is employed.

[3] = Postemergence herbicidal activity (% control) against dicot weeds; settings: post-emergence, 336 h; for activity at 4483.4 g/ha: read-out: Herbicidal activity (% control), postemergence, dicots, 4 lb./A., average, about two weeks after application; for activity at 11208.5 g/ha: read-out: Herbicidal activity (% control), postemergence, dicots, 10 lb./A., average, about two weeks after application; for activity at 2241.7 g/ha: read-out: Herbicidal activity (% control), postemergence, dicots, 2 lb./A., average, about two weeks after application
[4] = Preemergence herbicidal activity (% control) against monocot weeds; type: in vivo; settings: pre-emergence, 336 h, average, about two weeks after application, read-out: Herbicidal activity (% control), preemergence, monocots; for activity at 4483.4 g/ha: 4 lb./A.; for activity at 11208.5 g/ha: 10 lb./A.; for activity at 2241.7 g/ha: 2 lb./A.
From the text: as §1, §2, §3, §4, §5, §6, §7, §8, §9, §10

Row | SMILES | activity at 4483.4 g/ha [1] [%] | activity at 11208.5 g/ha [1] [%] | activity at 4483.4 g/ha [2] [%] | activity at 11208.5 g/ha [2] [%] | activity at 4483.4 g/ha [3] [%] | activity at 11208.5 g/ha [3] [%] | activity at 4483.4 g/ha [4] [%] | activity at 11208.5 g/ha [4] [%] | activity at 2241.7 g/ha [1] [%] | activity at 2241.7 g/ha [2] [%] | activity at 2241.7 g/ha [3] [%] | activity at 2241.7 g/ha [4] [%]
1 | CCOc1cc(Oc2ccc(C(F)(F)F)cc2)ccc1[N+](=O)[O-] [Example 1] | 45 | 35 | 57 | 82 | 58 | 100 | 76 | 42 |  |  |  | 
2 | COc1cc(Oc2ccc(C(F)(F)F)cc2Cl)ccc1[N+](=O)[O-] [Example 2] | 80 | 100 | 99 | 100 | 100 |  | 97 | 97 |  |  |  | 
3 | CCCOc1cc(Oc2ccc(C(F)(F)F)cc2Cl)ccc1[N+](=O)[O-] [Example 5] | 78 | 100 | 99 | 100 | 100 |  | 84 | 97 |  |  |  | 
4 | CCCCOc1cc(Oc2ccc(C(F)(F)F)cc2Cl)ccc1[N+](=O)[O-] [Example 6] | 55 | 70 | 91 | 97 | 94 | 100 | 77 | 65 |  |  |  | 
5 | CCOc1cc(Oc2ccc(C(F)(F)F)cc2C#N)ccc1[N+](=O)[O-] [Example 7, 2-Cyano-α,α,α-trifluoro-p-tolyl-3-ethoxy-4-nitrophenyl ether] | 57 | 60 | 75 | 100 | 77 |  | 65 | 61 | 54 | 82 | 80 | 65
6 | CCCOc1cc(Oc2ccc(C(F)(F)F)cc2C#N)ccc1[N+](=O)[O-] [Example 8] | 57 | 82 | 48 | 85 | 80 | 100 | 61 | 81 | 46 | 35 | 66 | 52
7 | Cc1cc(Oc2ccc(C(F)(F)F)cc2C#N)ccc1[N+](=O)[O-] [Example 9] | 66 | 92 | 97 | 100 | 81 |  | 90 | 99 | 67 | 82 | 75 | 81
8 | O=[N+]([O-])c1ccc(Oc2ccc(C(F)(F)F)cc2Cl)cc1O [Example 10, 2-Chloro-α,α,α-trifluoro-p-tolyl-3-hydroxy-4-nitrophenylether] | 100 |  | 67 |  | 98 |  | 70 |  | 70 | 17 | 85 | 66
9 | C=CCOc1cc(Oc2ccc(C(F)(F)F)cc2Cl)ccc1[N+](=O)[O-] [Example 12] | 96 |  | 77 |  | 100 |  | 86 |  | 93 | 99 | 100 | 72
10 | C#CCOc1cc(Oc2ccc(C(F)(F)F)cc2Cl)ccc1[N+](=O)[O-] [Example 13] | 90 |  | 77 |  | 98 |  | 76 |  | 72 | 100 |  | 78
11 | CC#CCCOc1cc(Oc2ccc(C(F)(F)F)cc2Cl)ccc1[N+](=O)[O-] [Example 14] | 78 |  | 61 |  | 94 |  | 64 |  | 22 | 91 | 100 | 30
12 | O=[N+]([O-])c1ccc(Oc2ccc(C(F)(F)F)cc2Cl)cc1OCCO [Example 15, 2-chloro-α,α,α-trifluoro-p-tolyl-3-(2-hydroxyethoxy)-4-nitrophenyl ether] | 100 |  | 79 |  | 99 |  | 99 |  | 90 | 76 | 94 | 68
13 | CCOCCOc1cc(Oc2ccc(C(F)(F)F)cc2Cl)ccc1[N+](=O)[O-] [Example 16] | 94 |  | 77 |  | 96 |  | 86 |  | 75 | 82 | 94 | 67
14 | CN(C)CCOc1cc(Oc2ccc(C(F)(F)F)cc2Cl)ccc1[N+](=O)[O-] [Example 17, 2-chloro-α,α,α-trifluoro-p-tolyl-3-(2-dimethylaminoethoxy)-4-nitrophenyl ether] | 84 |  | 45 |  | 89 |  | 51 |  | 31 | 39 | 98 | 20
15 | O=[N+]([O-])c1ccc(Oc2ccc(C(F)(F)F)cc2Cl)cc1NCCO [Example 22] | 98 |  | 60 |  | 99 |  | 72 |  | 77 | 70 | 100 | 63
16 | O=C(O)COc1cc(Oc2ccc(C(F)(F)F)cc2Cl)ccc1[N+](=O)[O-] [Example 23] | 64 |  | 82 |  | 100 |  | 90 |  | 87 | 71 | 100 | 55
17 | CCOC(=O)COc1cc(Oc2ccc(C(F)(F)F)cc2Cl)ccc1[N+](=O)[O-] [Example 24] | 68 |  | 86 |  | 99 |  | 91 |  | 97 | 84 | 100 | 62
18 | CC(Oc1cc(Oc2ccc(C(F)(F)F)cc2Cl)ccc1[N+](=O)[O-])C(=O)O (stereo not drawn) [Example 25, 2-Chloro-α,α,α-trifluoro-p-tolyl-3-(1-carboxyethoxy)-4-nitrophenyl ether] | 88 |  | 97 |  | 100 |  | 87 |  | 93 | 88 | 100 | 40
19 | Nc1cc(Oc2ccc(C(F)(F)F)cc2Cl)ccc1[N+](=O)[O-] [Example 27] | 98 |  | 82 |  | 100 |  | 76 |  | 90 | 99 | 100 | 74
20 | O=[N+]([O-])c1ccc(Oc2ccc(C(F)(F)F)cc2Cl)cc1N1CCOCC1 [Example 28, 2-chloro-α,α,α-trifluoro-p-tolyl-3-morpholino-4-nitrophenyl ether] | 95 |  | 73 |  | 99 |  | 74 |  |  | 73 | 100 | 79
21 | C#CCCOc1cc(Oc2ccc(C(F)(F)F)cc2Cl)ccc1[N+](=O)[O-] [Example 29] | 73 |  | 79 |  | 100 |  | 74 |  | 84 | 97 | 100 | 66
22 | CC(=O)CCOc1cc(Oc2ccc(C(F)(F)F)cc2Cl)ccc1[N+](=O)[O-] [Example 31] | 99 |  | 61 |  | 100 |  | 74 |  | 69 | 68 | 100 | 68
